Assay [1] relates to Hepatitis C virus. Nature of the assay: Antiviral activity against HCV1b Con1 infected in human HuH7 cells assessed as inhibition of viral replication after 4 days by luciferase reporter gene assay in presence of 40% human plasma. Type of assay: functional, organism-based, Hepacivirus hominis. To be noted: isolate Con1, Huh-7, Plasma, 96 h. On the technique in general: Reporter assays use an easily measured gene product as a stand-in for the process of interest.

The test system of assay [2] is Hepatitis C virus. The assay is described as follows: Antiviral activity against HCV1b Con1 infected in human HuH7 cells assessed as inhibition of viral replication after 4 days by luciferase reporter gene assay. The conditions noted are these: isolate Con1, Huh-7, 96 h. In kind it is functional, organism-based, Hepacivirus hominis.
For assay [3], the system named is Hepatitis C virus. Nature of the assay: Ratio of EC50 for HCV1a H77 infected in human HuH7 cells in presence of 40% human plasma to EC50 for HCV1a H77 infected in human HuH7 cells in absence of 40% human plasma. In kind it is functional, Hepacivirus hominis, genotype 1a H77, Huh-7.
The test system of assay [4] is Hepatitis C virus. The assay is described as follows: Antiviral activity against HCV1a H77 infected in human HuH7 cells assessed as inhibition of viral replication after 4 days by luciferase reporter gene assay. Type of assay: functional, organism-based, Hepacivirus hominis. The conditions noted are these: genotype 1a H77, Huh-7, 96 h.
In assay [5] the test system is Hepatitis C virus. The assay is described as follows: Ratio of EC50 for HCV1b Con1 infected in human HuH7 cells in presence of 40% human plasma to EC50 for HCV1b Con1 infected in human HuH7 cells in absence of 40% human plasma. In kind it is functional, Hepacivirus hominis, isolate Con1, Huh-7.
Assay [6] concerns Hepatitis C virus. The assay is described as follows: Antiviral activity against HCV1a H77 infected in human HuH7 cells assessed as inhibition of viral replication after 4 days by luciferase reporter gene assay in presence of 40% human plasma. To be noted: genotype 1a H77, Huh-7, Plasma, 96 h. In kind it is functional, organism-based, Hepacivirus hominis.

As a reminder, the EC50 is the midpoint of the concentration-response curve. With `COC(=O)N[C@H](C(=O)N1CCC[C@H]1C(=O)Nc1ccc([C@H]2CC[C@@H](c3ccc(NC(=O)[C@@H]4CCCN4C(=O)[C@@H](NC(=O)OC)C(C)(C)C)cc3)N2c2ccc(F)cc2)cc1)C(C)(C)C`, the 50% effective concentration (EC50) with Hepatitis C virus [1] came to 0.278 nM; in the assay with Hepatitis C virus [2], 0.032 nM; in the assay with Hepatitis C virus [4] it was 6.22 nM; in the assay with Hepatitis C virus [6], 103 nM. For the same compound, the “Ratio EC50” value came out at 17 with Hepatitis C virus [3] and 9 with Hepatitis C virus [5].

Turning to `CC[C@H](NC(=O)OC)C(=O)N1CCC[C@H]1C(=O)Nc1ccc([C@@H]2CC[C@@H](c3ccc(NC(=O)[C@@H]4CCCN4C(=O)[C@H](CC)NC(=O)OC)cc3)N2c2ccc(F)cc2)cc1`, the concentration giving a half-maximal response (EC50) with Hepatitis C virus [1] came out at 1 nM; in the assay on Hepatitis C virus [2], 0.14 nM; with Hepatitis C virus [4], 4.6 nM; with Hepatitis C virus [6], 34 nM. Further, the “Ratio EC50” value in the assay with Hepatitis C virus [3] and in the assay with Hepatitis C virus [5] was 7 throughout.

Turning to `COC(=O)N[C@H](C(=O)N1CCC[C@H]1C(=O)Nc1ccc([C@@H]2CC[C@@H](c3ccc(NC(=O)[C@@H]4CCCN4C(=O)[C@@H](NC(=O)OC)C(C)C)cc3)N2c2ccc(OC)cc2)cc1)C(C)C`, the EC50 with Hepatitis C virus [1] amounted to 0.447 nM; with Hepatitis C virus [2] it was 0.076 nM; in the assay on Hepatitis C virus [4], 0.992 nM; in the assay with Hepatitis C virus [6], 5.92 nM. The “Ratio EC50” value with Hepatitis C virus [3] and in the assay on Hepatitis C virus [5] was 6 in each case.

As for `COC(=O)N[C@H](C(=O)N1CCC[C@H]1C(=O)Nc1ccc([C@@H]2CC[C@@H](c3ccc(NC(=O)[C@@H]4CCCN4C(=O)[C@@H](NC(=O)OC)C(C)(C)C)cc3)N2c2ccc(C(F)(F)F)cc2)cc1)C(C)(C)C`, the EC50 in the assay with Hepatitis C virus [1] came out at 0.211 nM; with Hepatitis C virus [2], 0.0088 nM; in the assay with Hepatitis C virus [4], 0.099 nM; in the assay with Hepatitis C virus [6], 4.14 nM. The “Ratio EC50” value in the assay with Hepatitis C virus [3] stood at 42; with Hepatitis C virus [5], 24.

With `COC(=O)N[C@H](C(=O)N1CCC[C@H]1C(=O)Nc1ccc([C@H]2CC[C@H](c3ccc(NC(=O)[C@@H]4CCCN4C(=O)[C@@H](NC(=O)OC)C(C)(C)C)cc3)N2c2ccc(C(F)(F)F)cc2)cc1)C(C)(C)C`, the EC50 is 0.184 nM with Hepatitis C virus [1], 0.011 nM in the assay on Hepatitis C virus [2], 0.829 nM with Hepatitis C virus [4] and 14.3 nM with Hepatitis C virus [6]. Moreover, the “Ratio EC50” value in the assay with Hepatitis C virus [3] and with Hepatitis C virus [5] was 17 throughout.

`COC(=O)N[C@H](C(=O)N1CCC[C@H]1C(=O)Nc1ccc([C@H]2CC[C@H](c3ccc(NC(=O)[C@@H]4CCCN4C(=O)[C@@H](NC(=O)OC)C(C)C)cc3)N2c2ccc(C3CC3)cc2)cc1)C(C)C`: the 50% effective concentration (EC50) came to 0.114 nM in the assay on Hepatitis C virus [1], 0.0087 nM in the assay with Hepatitis C virus [2], 0.164 nM in the assay with Hepatitis C virus [4] and 1.68 nM in the assay on Hepatitis C virus [6]. The “Ratio EC50” value with Hepatitis C virus [3] came out at 10; in the assay with Hepatitis C virus [5], 13.

Consider `COC(=O)N[C@H](C(=O)N1CCC[C@H]1C(=O)Nc1ccc([C@@H]2CC[C@@H](c3ccc(NC(=O)[C@@H]4CCCN4C(=O)[C@@H](NC(=O)OC)C(C)C)cc3)N2c2ccc(C(C)(C)CO)cc2)cc1)C(C)C`, for which the concentration for a half-maximal effect (EC50) in the assay with Hepatitis C virus [1] came to 0.948 nM; in the assay on Hepatitis C virus [2] it was 0.095 nM; in the assay with Hepatitis C virus [4], 0.116 nM; in the assay on Hepatitis C virus [6] it was 1.47 nM. The “Ratio EC50” value was determined as 13 in the assay with Hepatitis C virus [3] and 10 with Hepatitis C virus [5].

For `COC(=O)N[C@H](C(=O)N1CCC[C@H]1C(=O)Nc1ccc([C@H]2CC[C@H](c3ccc(NC(=O)[C@@H]4CCCN4C(=O)[C@@H](NC(=O)OC)C(C)(C)C)cc3)N2c2ccc(S(C)(=O)=O)cc2)cc1)C(C)(C)C`, the EC50 stood at 3.42 nM in the assay on Hepatitis C virus [1], 0.226 nM in the assay on Hepatitis C virus [2], 0.659 nM in the assay with Hepatitis C virus [4] and 27.6 nM in the assay with Hepatitis C virus [6]. For the same compound, the results for the “Ratio EC50” value with Hepatitis C virus [3] and in the assay on Hepatitis C virus [5] were 42 and 15, respectively.

Regarding `COC(=O)N[C@H](C(=O)N1CCC[C@H]1C(=O)Nc1ccc([C@@H]2CC[C@@H](c3ccc(NC(=O)[C@@H]4CCCN4C(=O)[C@@H](NC(=O)OC)C(C)C)cc3)N2c2ccc(-c3cccnc3)cc2)cc1)C(C)C`, the EC50 in the assay with Hepatitis C virus [1] was 0.597 nM; in the assay on Hepatitis C virus [2], 0.069 nM; in the assay on Hepatitis C virus [4] it was 0.143 nM; with Hepatitis C virus [6], 2.57 nM. For the same compound, the “Ratio EC50” value in the assay with Hepatitis C virus [3] came out at 18; with Hepatitis C virus [5], 9.

For the compound `COC(=O)N[C@H](C(=O)N1CCC[C@H]1C(=O)Nc1ccc([C@H]2CC[C@H](c3ccc(NC(=O)[C@@H]4CCCN4C(=O)[C@@H](NC(=O)OC)C(C)(C)C)cc3)N2c2ccc(N3CCOCC3)cc2)cc1)C(C)(C)C`, the EC50 is 1.6 nM in the assay on Hepatitis C virus [1], 0.211 nM in the assay on Hepatitis C virus [2], 1.24 nM with Hepatitis C virus [4] and 11.2 nM with Hepatitis C virus [6]. For the same compound, the results for the “Ratio EC50” value in the assay with Hepatitis C virus [3] and with Hepatitis C virus [5] were 9 and 8, respectively.

As to `COC(=O)N[C@H](C(=O)N1CCC[C@H]1C(=O)Nc1ccc(CN(Cc2ccc(NC(=O)[C@@H]3CCCN3C(=O)[C@@H](NC(=O)OC)C(C)C)cc2)c2ccc(F)cc2)cc1)C(C)C`, the EC50 was determined as 0.4 nM in the assay with Hepatitis C virus [2] and 38 nM in the assay with Hepatitis C virus [4].

For `COC(=O)N[C@H](C(=O)N1CCC[C@H]1C(=O)Nc1ccc([C@@H]2CC[C@@H](c3ccc(NC(=O)[C@@H]4CCCN4C(=O)[C@@H](NC(=O)OC)C(C)C)cc3)N2)cc1)C(C)C`, the EC50 stood at 282 nM with Hepatitis C virus [2] and 253 nM with Hepatitis C virus [4].

Turning to `COC(=O)N[C@H](C(=O)N1CCC[C@H]1C(=O)Nc1ccc([C@H]2CC[C@@H](c3ccc(NC(=O)[C@@H]4CCCN4C(=O)[C@@H](NC(=O)OC)C(C)C)cc3)N2c2ccc(F)cc2)cc1)C(C)C`, the 50% effective concentration (EC50) turned out to be 0.3 nM in the assay on Hepatitis C virus [1], 0.09 nM with Hepatitis C virus [2], 22 nM in the assay on Hepatitis C virus [4] and 81 nM with Hepatitis C virus [6]. Moreover, the figures for the “Ratio EC50” value in the assay on Hepatitis C virus [3] and in the assay on Hepatitis C virus [5] were 4 and 3, respectively.

On to `COC(=O)N[C@H](C(=O)N1CCC[C@H]1C(=O)Nc1ccc([C@@H]2CC[C@@H](c3ccc(NC(=O)[C@@H]4CCCN4C(=O)[C@@H](NC(=O)OC)c4ccccc4)cc3)N2c2ccc(F)cc2)cc1)c1ccccc1` (mixture of isomers), for which the EC50 with Hepatitis C virus [1] worked out at 0.073 nM; in the assay with Hepatitis C virus [2] it was 0.002 nM; in the assay with Hepatitis C virus [4] it was 1.06 nM; in the assay with Hepatitis C virus [6], 22.8 nM. The “Ratio EC50” value with Hepatitis C virus [3] was found to be 22; in the assay with Hepatitis C virus [5] it was 37.

As for `COC(=O)N[C@H](C(=O)N1CCC[C@H]1C(=O)Nc1ccc([C@@H]2CC[C@@H](c3ccc(NC(=O)[C@@H]4CCCN4C(=O)[C@@H](NC(=O)OC)C(C)(C)O)cc3)N2c2ccc(F)cc2)cc1)C(C)(C)O` (mixture of isomers), the EC50 in the assay with Hepatitis C virus [1] turned out to be 2.6 nM; in the assay on Hepatitis C virus [2], 0.05 nM; in the assay with Hepatitis C virus [4], 0.6 nM; in the assay with Hepatitis C virus [6] it was 18 nM. Also, the “Ratio EC50” value with Hepatitis C virus [3] is 30; in the assay with Hepatitis C virus [5], 52.

Consider `COC(=O)N[C@H](C(=O)N1CCC[C@H]1C(=O)Nc1ccc([C@@H]2CC[C@@H](c3ccc(NC(=O)[C@@H]4CCCN4C(=O)[C@@H](NC(=O)OC)C(C)C)cc3)N2c2ccc(Br)cc2)cc1)C(C)C` (mixture of isomers), for which the 50% effective concentration (EC50) stood at 0.089 nM in the assay with Hepatitis C virus [1], 0.0068 nM in the assay with Hepatitis C virus [2], 0.286 nM with Hepatitis C virus [4] and 4.46 nM in the assay with Hepatitis C virus [6]. Also, the “Ratio EC50” value amounted to 16 in the assay with Hepatitis C virus [3] and 13 with Hepatitis C virus [5].

For `COC(=O)N[C@H](C(=O)N1CCC[C@H]1C(=O)Nc1ccc([C@@H]2CC[C@@H](c3ccc(NC(=O)[C@@H]4CCCN4C(=O)[C@@H](NC(=O)OC)C(C)C)cc3)N2c2ccc(-c3ccccc3)cc2)cc1)C(C)C` (mixture of isomers), the EC50 was 0.256 nM in the assay on Hepatitis C virus [1], 0.011 nM in the assay on Hepatitis C virus [2], 0.89 nM in the assay on Hepatitis C virus [4] and 1.69 nM in the assay on Hepatitis C virus [6]. Further, the “Ratio EC50” value with Hepatitis C virus [3] worked out at 19; in the assay on Hepatitis C virus [5], 23.
